Like-named read-outs stand apart in the source and are kept apart here.
Experiments:
[1] = system: SH-SY5Y neuroblastoma cells; experiment: XTT mitochondrial activity/cell viability assay, SH-SY5Y; format: cell-based; settings: 20 µM, 24 h, serum-free media, vs DMSO control (0.2%), mean
Protocol: The safety profile of niridazole and its organometallic derivatives was evaluated using two different cell lines. The XTT mitochondrial activity assay reflecting cell viability was performed in the hepatocyte‐derived carcinoma cell line HUH7 and in the human neuroblastoma cell line SH‐SY5Y at 20 µM for 24 h. The SYTOX cell viability assay was subsequently performed on the SH‐SY5Y cell line, once the cell line was identified to be more sensitive to the treatment conditions.
Figure 5 XTT assay. Results of the XTT activity/viability assay are shown in A for HUH7 and B for SHSY5Y cells. […]
Additionally, 2 wells with negative controls containing only DMSO and the culture medium were included. After an incubation period of 72 h at 37 °C and 5 % CO 2, the worms were microscopically evaluated. The drug effect was determined 24, 48 and 72 h post-exposure based on the phenotype of the adult worms, using a viability scale ranging from three referring to viable, motile worms with no change in their tegument to zero standing for the death of the worms. […]
Following 24 h of incubation, 12.5 μL of an XTT/phenazine methosulfate (PMS) (XTT Sigma Aldrich cat X4626, PMS Serva CAT: 3203) 0.02solution (1 mg/mL XTT and 7.5 μg/mL PMS) was added to each well. […] Mean ± SD was determined from three independent experiments, each performed in quintuplicate. […]

adult S. mansoni = experiment: In vitro drug sensitivity assay on adult S. mansoni (microscopic viability scoring); format: cell-based, Schistosoma mansoni; settings: for EC50: Schistosoma mansoni, 37 °C, 5% CO2
Protocol: Figure 3 In vitro activity at 50 µM of the 12 compounds on adult S. mansoni. Adult schistosomes were incubated in culture media for 72 h at 37 °C and 5% CO2 with either compound (50 µM) or a DMSO (0.5%) control. The viability of the worms was microscopically evaluated and scored (0—3, in 0.5 steps) every 24 h. Results are from two independent experiments, each performed in duplicate. Drug activities were normalized to the DMSO controls. Data represent mean ± SD in percentage of DMSO control. […]
In vitro evaluation on adult S. mansoni
After a week for acclimatization to the new environment with controlled conditions (temperature: 22 °C ± 2 °C, humidity: 50 % ± 10 %, 12:12 h light/dark photocycle), four-week-old female NMRI mice (Charles River, Sulzfeld, Germany) were subcutaneously infected with approximately 100 cercariae to establish the S. mansoni infection. In the S. mansoni infected mice the worms were allowed to develop for 7 weeks into the adult stage, before they were extracted from the mesenteric veins of the euthanized mice. The adult worms were placed into RPMI 1640 (Gibco, Waltham MA, USA) medium supplemented with 1 % penicillin/streptomycin mixture and 5 % iFCS at 37 °C and 5 % CO 2. The drug sensitivity assay was set up in a 24-well plate with two wells containing each two pairs of S. mansoni worms per compound and concentration.
The final volume per well was 2 mL, containing the culture medium and the corresponding amount of drug dissolved in DMSO. The maximum concentration tested was 50 µM, corresponding to 0.5 % DMSO, to which all the other wells were adapted […]
to, so that all test concentrations contained always the same amount of DMSO.
Additionally, 2 wells with negative controls containing only DMSO and the culture medium were included. After an incubation period of 72 h at 37 °C and 5 % CO 2, the worms were microscopically evaluated. The drug effect was determined 24, 48 and 72 h post-exposure based on the phenotype of the adult worms, using a viability scale ranging from three referring to viable, motile worms with no change in their tegument to zero standing for the death of the worms.
All described in vitro studies with mice involved, were conducted at the Swiss Tropical and Public Health Institute, first in Basel, later in Allschwil, and had the approval by the corresponding veterinary authorities of the Canton Basel-Stadt (permit no. 2070)

In the case of `O=C1NCCN1c1ncc([N+](=O)[O-])s1` [Niridazole, niridazole], the “reduction of XTT signal in SH-SY5Y cells” value [1] is reported as “no signs of toxicity”, the “drug effect at 50 µM on adult S. mansoni” value (adult S. mansoni; 50 µM, 72 h incubation, normalized to DMSO control, active if ≥60%) is reported as 83% and the EC50 (adult S. mansoni; 24 h, 24 h drug exposure, read-out: EC50 on adult S. mansoni, 24 h) is reported as over 50 µM. For the same molecule, the EC50 (adult S. mansoni; 48 h, 48 h drug exposure, read-out: EC50 on adult S. mansoni, 48 h) was 7.8 µM and the EC50 (adult S. mansoni; 72 h, 72 h drug exposure, read-out: EC50 on adult S. mansoni, 72 h) was 5.6 µM.

Source: publication PMC12677843, “Multidisciplinary Preclinical Investigations on Ferrocenyl, Ruthenocenyl, and Benzyl Derivatives of Niridazole as New Drug Candidates against Schistosomiasis” (Chemmedchem, 2025)
